Source: PubChem BioAssay (NCI)
Several values for one entry are separate records, joined by “and”; a condition that tells them apart may be missing. Equal values may be shown once.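 Compound exposure: 48 hours, 5 concentrations, 96-well plates. GI50 marks 50% less growth. TGI denotes the concentration required for complete inhibition of growth.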

Key:
Assay in all cases: NCI tumour cell line growth inhibition, 48 h
IGROV1 ovarian = system: IGROV1 ovarian
KM12 colon = system: KM12 colon
SNB-75 CNS = system: SNB-75 CNS
ACHN renal = system: ACHN renal
SN12C renal = system: SN12C renal
NCI-H23 lung = system: NCI-H23 lung
HS 578T breast = system: HS 578T breast
SNB-19 CNS = system: SNB-19 CNS
HT29 colon = system: HT29 colon
OVCAR-8 ovarian = system: OVCAR-8 ovarian
COLO 205 colon = system: COLO 205 colon
LOX IMVI melanoma = system: LOX IMVI melanoma
A549 NSCLC = system: A549 NSCLC
HCT-116 colon = system: HCT-116 colon
RPMI-8226 leukemia = system: RPMI-8226 leukemia
MDA-MB-231 breast = system: MDA-MB-231 breast
DU-145 prostate = system: DU-145 prostate
NCI/ADR-RES ovarian = system: NCI/ADR-RES ovarian
HCC-2998 colon = system: HCC-2998 colon
UACC-257 melanoma = system: UACC-257 melanoma
EKVX NSCLC = system: EKVX NSCLC
SW-620 colon = system: SW-620 colon
M14 melanoma = system: M14 melanoma
SF-295 CNS = system: SF-295 CNS
MDA-MB-435 = system: MDA-MB-435
MDA-N = system: MDA-N
T-47D breast = system: T-47D breast
TK-10 renal = system: TK-10 renal
HCT-15 colon = system: HCT-15 colon
OVCAR-4 ovarian = system: OVCAR-4 ovarian
UO-31 renal = system: UO-31 renal
SK-MEL-28 melanoma = system: SK-MEL-28 melanoma
PC-3 prostate = system: PC-3 prostate
OVCAR-3 ovarian = system: OVCAR-3 ovarian
CAKI-1 renal = system: CAKI-1 renal
A498 renal = system: A498 renal
OVCAR-5 ovarian = system: OVCAR-5 ovarian
SK-OV-3 ovarian = system: SK-OV-3 ovarian
HOP-62 NSCLC = system: HOP-62 NSCLC
SK-MEL-5 melanoma = system: SK-MEL-5 melanoma
UACC-62 melanoma = system: UACC-62 melanoma
U251 CNS = system: U251 CNS
NCI-H460 lung = system: NCI-H460 lung
SK-MEL-2 melanoma = system: SK-MEL-2 melanoma
NCI-H226 lung = system: NCI-H226 lung
NCI-H522 lung = system: NCI-H522 lung
RXF 393 renal = system: RXF 393 renal
CCRF-CEM leukemia = system: CCRF-CEM leukemia
SR leukemia = system: SR leukemia
SF-539 CNS = system: SF-539 CNS
MCF7 breast = system: MCF7 breast
MOLT-4 leukemia = system: MOLT-4 leukemia
HL-60(TB) leukemia = system: HL-60(TB) leukemia
MALME-3M melanoma = system: MALME-3M melanoma
HOP-92 NSCLC = system: HOP-92 NSCLC
K-562 leukemia = system: K-562 leukemia
786-0 renal = system: 786-0 renal
BT-549 breast = system: BT-549 breast
SF-268 CNS = system: SF-268 CNS

Structure (SMILES): CN(C)CC(NC(NCS)C(=O)NCCNc1ccc(NCCNC(=O)C(NCS)NC(CN(C)C)OCCl)c2c1C(=O)c1c(O)ccc(O)c1C2=O)OCCl (stereo unspecified)
- TGI (IGROV1 ovarian): 2490 nM
- GI50 (KM12 colon): 211 nM
- TGI (KM12 colon): 1530 nM and 1840 nM
- GI50 (SNB-75 CNS): 38.7 nM
- TGI (SNB-75 CNS): 1770 nM and 990 nM
- TGI (ACHN renal): 194 nM
- GI50 (SN12C renal): < 1 nM
- TGI (SN12C renal): 477 nM
- TGI (NCI-H23 lung): 111 nM
- TGI (HS 578T breast): 3050 nM
- TGI (SNB-19 CNS): 1960 nM
- GI50 (HT29 colon): 228 nM
- TGI (HT29 colon): 278 nM and 1580 nM
- GI50 (OVCAR-8 ovarian): 43.6 nM
- TGI (COLO 205 colon): 3280 nM
- TGI (LOX IMVI melanoma): 1850 nM
- TGI (A549 NSCLC): 1540 nM
- TGI (HCT-116 colon): 1720 nM
- TGI (RPMI-8226 leukemia): 30 nM
- GI50 (MDA-MB-231 breast): 1050 nM
- TGI (MDA-MB-231 breast): 305 nM and 2680 nM
- GI50 (DU-145 prostate): 16.2 nM
- TGI (DU-145 prostate): 977 nM and 287 nM
- GI50 (NCI/ADR-RES ovarian): 287 nM
- TGI (NCI/ADR-RES ovarian): 4990 nM and 5040 nM
- TGI (HCC-2998 colon): 1860 nM
- TGI (UACC-257 melanoma): 3600 nM
- GI50 (EKVX NSCLC): 516 nM
- TGI (EKVX NSCLC): 1260 nM and 2510 nM
- TGI (SW-620 colon): 1250 nM
- GI50 (M14 melanoma): 506 nM
- TGI (SF-295 CNS): 1390 nM
- TGI (MDA-MB-435): 1450 nM
- TGI (MDA-N): 1090 nM
- TGI (T-47D breast): 1620 nM
- GI50 (TK-10 renal): 340 nM
- TGI (TK-10 renal): 2440 nM
- GI50 (HCT-15 colon): 89.2 nM
- TGI (HCT-15 colon): 1730 nM and 1740 nM
- GI50 (OVCAR-4 ovarian): 373 nM
- TGI (OVCAR-4 ovarian): 2780 nM and 1300 nM
- TGI (UO-31 renal): 1520 nM
- GI50 (SK-MEL-28 melanoma): 2180 nM
- TGI (PC-3 prostate): 1460 nM
- GI50 (OVCAR-3 ovarian): 1360 nM
- TGI (CAKI-1 renal): 119 nM
- TGI (A498 renal): 2760 nM
- GI50 (OVCAR-5 ovarian): 713 nM
- TGI (SK-OV-3 ovarian): 4110 nM
- TGI (HOP-62 NSCLC): 482 nM
- TGI (SK-MEL-5 melanoma): 940 nM
- TGI (UACC-62 melanoma): 1600 nM
- TGI (U251 CNS): 57.5 nM
- TGI (NCI-H460 lung): 944 nM
- TGI (SK-MEL-2 melanoma): 2990 nM
- GI50 (NCI-H226 lung): 285 nM
- TGI (NCI-H226 lung): 418 nM and 1610 nM

Structure (SMILES): COc1ccc(-n2c(C)nc3c(c(C)nn3-c3ccccc3)c2=O)cc1
- GI50 (IGROV1 ovarian): 70.1 nM
- TGI (IGROV1 ovarian): > 100000 nM
- GI50 (KM12 colon): 53.2 nM
- TGI (KM12 colon): > 100000 nM
- GI50 (SNB-75 CNS): 27.6 nM
- TGI (SNB-75 CNS): > 100000 nM
- GI50 (ACHN renal): 64.5 nM
- TGI (ACHN renal): > 100000 nM
- GI50 (SN12C renal): 442 nM
- TGI (SN12C renal): > 100000 nM
- GI50 (NCI-H23 lung): 218 nM
- TGI (NCI-H23 lung): > 100000 nM
- GI50 (HS 578T breast): 52.8 nM
- TGI (HS 578T breast): > 100000 nM
- GI50 (SNB-19 CNS): 64 nM
- TGI (SNB-19 CNS): > 100000 nM
- GI50 (NCI-H522 lung): 37.5 nM
- TGI (NCI-H522 lung): 9100 nM
- GI50 (HT29 colon): 46.7 nM
- TGI (HT29 colon): > 31900 nM
- GI50 (OVCAR-8 ovarian): 177 nM
- TGI (OVCAR-8 ovarian): > 100000 nM
- GI50 (RXF 393 renal): 60.9 nM
- TGI (RXF 393 renal): > 100000 nM
- GI50 (COLO 205 colon): 120 nM
- TGI (COLO 205 colon): 1930 nM
- GI50 (CCRF-CEM leukemia): 57 nM
- TGI (CCRF-CEM leukemia): > 100000 nM
- GI50 (LOX IMVI melanoma): 65 nM
- TGI (LOX IMVI melanoma): > 100000 nM
- GI50 (A549 NSCLC): 107 nM
- TGI (A549 NSCLC): > 100000 nM
- GI50 (HCT-116 colon): 44.3 nM
- TGI (HCT-116 colon): 7910 nM
- GI50 (SR leukemia): 39.1 nM
- TGI (SR leukemia): > 58700 nM
- GI50 (RPMI-8226 leukemia): 108 nM
- TGI (RPMI-8226 leukemia): > 33600 nM
- GI50 (MDA-MB-231 breast): 311 nM
- TGI (MDA-MB-231 breast): > 100000 nM
- GI50 (SF-539 CNS): 47.1 nM
- GI50 (MCF7 breast): 36 nM
- TGI (MCF7 breast): > 100000 nM
- GI50 (DU-145 prostate): 290 nM
- TGI (DU-145 prostate): > 100000 nM
- GI50 (NCI/ADR-RES ovarian): 53.4 nM
- TGI (NCI/ADR-RES ovarian): > 100000 nM
- GI50 (HCC-2998 colon): 191 nM
- TGI (HCC-2998 colon): > 100000 nM
- GI50 (UACC-257 melanoma): 5820 nM
- TGI (UACC-257 melanoma): 75100 nM
- GI50 (EKVX NSCLC): 144 nM
- TGI (EKVX NSCLC): > 100000 nM
- GI50 (SW-620 colon): 41.5 nM
- TGI (SW-620 colon): > 100000 nM
- GI50 (M14 melanoma): 49.1 nM
- TGI (M14 melanoma): > 100000 nM
- GI50 (SF-295 CNS): 59.4 nM
- TGI (SF-295 CNS): > 100000 nM
- GI50 (MDA-MB-435): 30.5 nM
- TGI (MDA-MB-435): 116 nM
- GI50 (MOLT-4 leukemia): 196 nM
- TGI (MOLT-4 leukemia): > 40400 nM
- GI50 (HL-60(TB) leukemia): 35.3 nM
- TGI (HL-60(TB) leukemia): 220 nM
- GI50 (T-47D breast): 40.3 nM
- TGI (T-47D breast): 72500 nM
- GI50 (TK-10 renal): 9020 nM
- TGI (TK-10 renal): > 100000 nM
- GI50 (HCT-15 colon): 48.3 nM
- TGI (HCT-15 colon): > 100000 nM
- GI50 (OVCAR-4 ovarian): 1110 nM
- TGI (OVCAR-4 ovarian): > 100000 nM
- GI50 (UO-31 renal): 261 nM
- TGI (UO-31 renal): > 43400 nM
- GI50 (SK-MEL-28 melanoma): 2070 nM
- TGI (SK-MEL-28 melanoma): > 100000 nM
- GI50 (PC-3 prostate): 60.3 nM
- TGI (PC-3 prostate): > 100000 nM
- GI50 (OVCAR-3 ovarian): 41.4 nM
- GI50 (MALME-3M melanoma): 15900 nM
- TGI (MALME-3M melanoma): > 100000 nM
- GI50 (CAKI-1 renal): 46.1 nM
- TGI (CAKI-1 renal): > 50100 nM
- GI50 (HOP-92 NSCLC): 433 nM
- TGI (HOP-92 NSCLC): 29300 nM
- GI50 (K-562 leukemia): 35.6 nM
- TGI (K-562 leukemia): > 68100 nM
- GI50 (A498 renal): 26.4 nM
- TGI (A498 renal): 84.3 nM
- GI50 (OVCAR-5 ovarian): 298 nM
- TGI (OVCAR-5 ovarian): > 100000 nM
- GI50 (SK-OV-3 ovarian): 1080 nM
- TGI (SK-OV-3 ovarian): > 100000 nM
- GI50 (HOP-62 NSCLC): 78.9 nM
- TGI (HOP-62 NSCLC): > 100000 nM
- GI50 (SK-MEL-5 melanoma): 61.5 nM
- TGI (SK-MEL-5 melanoma): 4600 nM
- GI50 (UACC-62 melanoma): 42.6 nM
- TGI (UACC-62 melanoma): > 100000 nM
- GI50 (786-0 renal): 65.4 nM
- TGI (786-0 renal): > 100000 nM
- GI50 (U251 CNS): 61.4 nM
- TGI (U251 CNS): > 100000 nM
- GI50 (BT-549 breast): 123 nM
- TGI (BT-549 breast): 33800 nM
- GI50 (NCI-H460 lung): 47.8 nM
- TGI (NCI-H460 lung): > 40000 nM
- GI50 (SK-MEL-2 melanoma): 516 nM
- TGI (SK-MEL-2 melanoma): > 100000 nM
- GI50 (NCI-H226 lung): 207 nM
- TGI (NCI-H226 lung): > 100000 nM
- GI50 (SF-268 CNS): 1760 nM
- TGI (SF-268 CNS): > 100000 nM
